According to US10660333B2, “Substituted 2-heterocyclylimidazolylcarboxamides as pesticides” (BAYER CROPSCIENCE AKTIENGESELLSCHAFT, priority 2016, dated 2020):
Like-named read-outs stand apart in the source and are kept apart here.

Tests used:
[1] = tested on: Myzus persicae; experiment: Myzus persicae - oral test; type: in vivo; details: for pest or weed control at 4 ppm: Myzus persicae, 120 h, read-out: efficacy (aphids killed)
Procedure: (§1) To produce a suitable active ingredient formulation, 1 part by weight of active ingredient is dissolved with the specified parts by weight of solvent and made up to the desired concentration with water.
(§2) 50 μl of the active ingredient formulation are transferred into microtitre plates and made up to a final volume of 200 μl with 150 μl of IPL41 insect medium (33%+15% sugar). Subsequently, the plates are sealed with parafilm, which a mixed population of green peach aphids (Myzus persicae) within a second microtitre plate is able to puncture and imbibe the solution.
(§3) After 5 days, the efficacy in % is determined. 100% means that all the aphids have been killed; 0% means that no aphids have been killed.

[2] = tested on: Boophilus microplus; experiment: Boophilus microplus - injection test; type: in vivo; details: 20 μg/animal, injection into engorged adult female cattle ticks, after 7 days
Procedure: Boophilus microplus—Injection Test
Solvent: Dimethyl Sulphoxide
To produce a suitable active ingredient formulation, 10 mg of active ingredient are mixed with 0.5 ml of solvent and the concentrate is diluted to the desired concentration with solvent.
1 μl of the active ingredient solution is injected into the abdomen of 5 engorged adult female cattle ticks (Boophilus microplus). The animals are transferred into dishes and kept in a climate-controlled room.
Efficacy is assessed after 7 days by laying of fertile eggs. Eggs which are not visibly fertile are stored in a climate-controlled cabinet until the larvae hatch after about 42 days. An efficacy of 100% means that none of the ticks has laid any fertile eggs; 0% means that all the eggs are fertile.

[3] = tested on: Myzus persicae; experiment: Myzus persicae - spray test; type: in vivo; details: for pest or weed control at 500 g/ha: Myzus persicae, foliar, 120 h, read-out: efficacy (aphids killed)
Procedure: Myzus persicae—Spray Test
(§4) To produce a suitable active ingredient formulation, 1 part by weight of active ingredient is dissolved with the specified parts by weight of solvent and made up to the desired concentration with water containing an emulsifier concentration of 1000 ppm. To produce further test concentrations, the formulation is diluted with emulsifier-containing water.
(§5) Discs of Chinese cabbage leaves (Brassica pekinensis) infested by all stages of the green peach aphid (Myzus persicae) are sprayed with an active ingredient formulation of the desired concentration.
as §3

[4] = log P by HPLC on reversed-phase (C18) columns, OECD Guideline 117; type: physicochemical; details: for chromatographic logP: reversed-phase (C18) HPLC column
[5] = tested on: Tetranychus urticae; experiment: Tetranychus urticae - spray test, OP-resistant; type: in vivo; details: 500 g/ha, bean leaf discs, after 6 days
Procedure: Tetranychus urticae—Spray Test, OP-Resistant
as §4
Discs of bean leaves (Phaseolus vulgaris) infested with all stages of the greenhouse red spider mite (Tetranychus urticae) are sprayed with an active ingredient formulation of the desired concentration.
After 6 days, the efficacy in % is determined. 100% means that all the spider mites have been killed; 0% means that no spider mites have been killed.

[6] = tested on: Myzus persicae; experiment: Myzus persicae - drench test (MYZUPE D), savoy cabbage; type: in vivo; details: Myzus persicae, soil, 240 h, 10 dat, read-out: % efficacy
Procedure: Myzus persicae—Drench Test (MYZUPE D)
To produce a suitable active ingredient formulation, 1 part by weight of active ingredient is mixed with the specified amounts of solvent and emulsifier, and the concentrate is diluted with water to the desired concentration, it being necessary to include the volume of soil which is drenched in the calculation. It should be ensured that a concentration of 40 ppm of emulsifier in the soil is not exceeded. To produce further test concentrations, water is used for dilution.
Savoy cabbage (Brassica oleracea) in pots with soil and infested by all stages of the green peach aphid (Myzus persicae) is watered with an active ingredient formulation of the desired concentration.
(§6) After the desired period of time, the efficacy in % is determined. 100% means that all the aphids have been killed; 0% means that no aphids have been killed.

[7] = tested on: Myzus persicae; experiment: Myzus persicae - spray test (MYZUPE), comparison with prior art; type: in vivo; details: Myzus persicae, 120 h, 5 dat, read-out: % efficacy; for Emax at 100 g/ha: 100 g/ha (g of ai/ha)
Procedure: Myzus persicae—Spray Test (MYZUPE)
as §4, §5, §6

[8] = tested on: Myzus persicae; experiment: Myzus persicae - spray test (MYZUPE S), bell pepper plants; type: in vivo; details: Myzus persicae, 144 h, 6 dat, read-out: % efficacy
Procedure: Myzus persicae—Spray Test (MYZUPE S)
as §4, with “water. If the addition of ammonium salts or/and penetrants is required, these are each added in a concentration of 1000 ppm to the formulation solution.” for “water.”
Bell pepper plants (Capsicum annuum) severely infested with the green peach aphid (Myzus persicae) are treated by spraying with the active ingredient formulation in the desired concentration.
After the desired time, the kill in % is determined. 100% means that all the animals have been killed; 0% means that no animals have been killed.

[9] = tested on: Aphis gossypii; experiment: Aphis gossypii - spray test (APHIGO S), cotton plants; type: in vivo; details: 144 h, 6 dat, read-out: % efficacy
Procedure: Aphis gossypii—Spray Test (APHIGO S)
as §4, with “water. If the addition of ammonium salts or/and penetrants is required, these are each added in a concentration of 1000 ppm to the formulation solution.” for “water.”
Cotton plants (Gossypium hirsutum) heavily infested by the cotton aphid (Aphis gossypii) are sprayed with an active ingredient formulation of the desired concentration.
After the desired time, the kill in % is determined. 100% means that all the aphids have been killed; 0% means that no aphids have been killed.

[10] = tested on: Myzus persicae; experiment: Myzus persicae - oral test (MYZUPE O), comparison with prior art; type: in vivo; details: Myzus persicae, po, 120 h, 5 dat, read-out: % efficacy
Procedure: Myzus persicae—Oral Test (MYZUPE O)
as §1, §2, §6

[11] = tested on: Meloidogyne incognita; experiment: Meloidogyne incognita - test; type: in vivo; details: 20 ppm, lettuce, after 14 days
Procedure: Meloidogyne incognita—Test
To produce a suitable active ingredient formulation, 1 part by weight of active ingredient is mixed with the stated amount of solvent and the concentrate is diluted to the desired concentration with water.
Vessels are filled with sand, active ingredient solution, an egg/larvae suspension of the southern root-knot nematode (Meloidogyne incognita) and lettuce seeds. The lettuce seeds germinate and the plants develop. The galls develop on the roots.
After 14 days, the nematicidal efficacy in % is determined by the formation of galls. 100% means that no galls were found; 0% means that the number of galls on the treated plants corresponds to the untreated control.

[12] = 500 g/ha, Chinese cabbage leaf discs, after 5 days
[13] = HPLC RP C18, acidic range pH 2.7, 0.1% formic acid/acetonitrile
[14] = HPLC RP C18, neutral range pH 7.8, ammonium hydrogencarbonate/acetonitrile
[15] = HPLC RP C18, acidic range pH 2.7, 0.1% formic acid/acetonitrile, read-out: logP[a]
[16] = HPLC RP C18, neutral range pH 7.8, ammonium hydrogencarbonate/acetonitrile, read-out: logP[n]

Question: What does the source list for `CN(C(=O)c1cnc(C2CC(c3ccncc3)=NO2)n1C)c1cccnc1` (centres unmarked) [Example I-1-28]?
Answer: efficacy (aphids killed) ([1]; 4 ppm, oral, after 5 days): 100%; efficacy (laying of fertile eggs) [2]: 80%; efficacy (aphids killed) [3, 12]: 90%; logP[a] [4, 13]: 0.54; logP[n] [4, 14]: 1.11

Question: Which results are given for `CCN(C(=O)c1cnc(C2CC(c3ccccc3)=NO2)n1C)c1cccnc1` (centres unmarked) [Example I-1-8]?
Answer: efficacy (aphids killed) ([1]; 4 ppm, oral, after 5 days): 100%; efficacy (spider mites killed) [5]: 90%; efficacy (aphids killed) [3, 12]: 100%; logP[a] [4, 13]: 1.74; logP[n] [4, 14]: 1.92

Question: For `CN(C(=O)c1cnc(C2CC(c3ccc(C(F)(F)F)cc3)=NO2)n1C)c1cccnc1` (centres unmarked) [Example I-1-23], which “efficacy (aphids killed)” value ([1]; 4 ppm, oral, after 5 days) is on record?
Answer: 100%

Question: And the “efficacy (spider mites killed)” value [5]?
Answer: 100%

Question: And the “efficacy (aphids killed)” value [3, 12]?
Answer: 90%

Question: What about the “logP[a]” value [4, 13] of the same compound?
Answer: 2.18

Question: And the “logP[n]” value [4, 14]?
Answer: 2.37

Question: For `CN(C(=O)c1cnc(C2CC(c3ccccc3)=NO2)n1C)c1cccnc1` (centres unmarked) [Example I-1-7], which pest or weed control at 4 ppm ([1]; 4 ppm, oral, after 5 days) is on record?
Answer: 100%

Question: What about the “efficacy (laying of fertile eggs)” value [2] of the same compound?
Answer: 80%

Question: And the Emax at 0.16 ppm [6]?
Answer: 80%

Question: And the Emax at 0.8 ppm [6]?
Answer: 90%

Question: And the Emax at 100 g/ha [7]?
Answer: 90%

Question: What about the Emax at 500 g/ha [7] of the same compound?
Answer: 90%

Question: And the Emax at 0.16 ppm [8]?
Answer: 95%

Question: What about the Emax at 0.8 ppm [8] of the same compound?
Answer: 100%

Question: And the pest or weed control at 500 g/ha [3, 12]?
Answer: 90%

Question: And the chromatographic logP [4, 15]?
Answer: 1.45

Question: What about the chromatographic logP [4, 16] of the same compound?
Answer: 1.72

Question: What about the Emax at 0.16 ppm ([9]; 0.16 ppm) of the same compound?
Answer: 50%

Question: What about the Emax at 0.8 ppm [9] of the same compound?
Answer: 100%

Question: And the Emax at 0.8 ppm [10]?
Answer: 100%

Question: What about the Emax at 4 ppm [10] of the same compound?
Answer: 100%

Question: For `CN(C(=O)c1cnc(C2CC(c3cccc(C#N)c3)=NO2)n1C)c1cccnc1` (centres unmarked) [Example I-1-19, 2-[3-(3-Cyanophenyl)-4,5-dihydro-1,2-oxazol-5-yl]-N,1-dimethyl-N-(pyridin-3-yl)-1H-imidazole-5-carboxamide], which pest or weed control at 4 ppm ([1]; 4 ppm, oral, after 5 days) is on record?
Answer: 100%

Question: What about the “efficacy (laying of fertile eggs)” value [2] of the same compound?
Answer: 95%

Question: And the pest or weed control at 500 g/ha [3, 12]?
Answer: 100%

Question: What about the chromatographic logP [4, 15] of the same compound?
Answer: 1.39

Question: And the chromatographic logP [4, 16]?
Answer: 1.63

Question: What does the source list for `CN(C(=O)c1cnc(C2CC(c3ccccn3)=NO2)n1C)c1cccnc1` (centres unmarked) [Example I-1-26]?
Answer: pest or weed control at 4 ppm ([1]; 4 ppm, oral, after 5 days): 100%; Emax at 0.16 ppm [6]: 95%; Emax at 0.8 ppm [6]: 98%; Emax at 20 g/ha ([7]; 20 g/ha (g of ai/ha)): 90%; Emax at 100 g/ha [7]: 90%; Emax at 500 g/ha [7]: 90%; Emax at 0.16 ppm [8]: 100%; Emax at 0.8 ppm [8]: 100%; pest or weed control at 500 g/ha [3, 12]: 90%; chromatographic logP [4, 15]: 1.01; chromatographic logP [4, 16]: 1.27; Emax at 0.8 ppm [9]: 100%; Emax at 0.8 ppm [10]: 100%; Emax at 4 ppm [10]: 100%

Question: For `CN(C(=O)c1cnc(C2=NOCCO2)n1C)c1cccnc1` [Example I-1-29, 2-(5,6-Dihydro-1,4,2-dioxazin-3-yl)-N,1-dimethyl-N-(pyridin-3-yl)-1H-imidazole-5-carboxamide], which pest or weed control at 4 ppm ([1]; po) is on record?
Answer: 100%

Question: What about the pest or weed control at 500 g/ha ([3]; in Brassica rapa) of the same compound?
Answer: 100%

Question: And the chromatographic logP [4, 15]?
Answer: 0.45

Question: And the chromatographic logP [4, 16]?
Answer: 0.76

Question: And the “nematicidal efficacy (formation of galls)” value [11]?
Answer: 100%

Question: Which “efficacy (aphids killed)” value ([1]; 4 ppm, oral, after 5 days) does the source give for `CN(C(=O)c1cnc(C2CC(c3ccc([N+](=O)[O-])cc3)=NO2)n1C)c1cccnc1` (centres unmarked) [Example I-1-24] here?
Answer: 100%

Question: And the “efficacy (spider mites killed)” value [5]?
Answer: 100%

Question: What about the “efficacy (aphids killed)” value [3, 12] of the same compound?
Answer: 90%

Question: What about the “logP[a]” value ([4]; pH 2.7) of the same compound?
Answer: 1.64

Question: And the “logP[n]” value ([4]; pH 7.8)?
Answer: 1.84
